Test systems include HL-60; SR; ACHN; TK-10; OVCAR-4; NCI-H23; CAKI-1; MDA-MB-435; HCC 2998; NCI/ADR-RES; Malme-3M; EKVX; MDA-N; SF-539; UACC-257; MDA-MB-231; OVCAR-3; M14; SF-268; HCT-15.
Holding throughout (test): NCI-60 cell line screen, 48 h

This is an account of results in ChEMBL document CHEMBL1201862, “PubChem BioAssay data set” (2004).

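Protocol summary: plate cells (96-well), add compound at 5 concentrations, incubate 48 h, interpolate endpoints linearly. Abbreviation: GI50, concentration required for 50% inhibition of growth.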 Calls of active or inactive are those of the source. Cut-off read from the data, not from the text of the source: active = GI50 up to about 1.1 µM and inactive = higher. A value given as a limit tells only on which side of the number the result lay.

`O=C(Nc1ccc2cc3ccccc3cc2c1)c1cc2c(cc1Cl)Sc1nccn1S2(=O)=O`: the GI50 in the test on HL-60 was 17.7 µM (inactive); in the test on SR it was 35.2 µM (inactive); in the test on ACHN, 67.1 µM (inactive); in the test with TK-10, 16 µM (inactive); with OVCAR-4, 10.3 µM (inactive); in the test with NCI-H23, 46.5 µM (inactive). The GI50 in the test on CAKI-1 was > 100 µM (inactive); with MDA-MB-435, 28.4 µM (inactive); with HCC 2998 it was 6.84 µM (inactive); in the test with NCI/ADR-RES, > 100 µM (inactive); with Malme-3M, 19.5 µM (inactive); with EKVX it was 35.6 µM (inactive). Moreover, the GI50 in the test with MDA-N is 44.4 µM (inactive); with SF-539, 7.8 µM (inactive); in the test on UACC-257, 58.3 µM (inactive); in the test on MDA-MB-231, 8.97 µM (inactive); in the test with OVCAR-3 it was > 100 µM (inactive); in the test with M14, 42.7 µM (inactive). Further, the GI50 in the test with SF-268 is 15.3 µM (inactive); in the test with HCT-15 it was 20.7 µM.

As to `O=C(/C=C/c1ccccc1)CSc1nc2ccc(I)cc2c(=O)n1Cc1ccccc1`, the GI50 was 17.1 µM (inactive) in the test with HL-60; 8.81 µM (inactive) with SR; 7.64 µM (inactive) in the test with ACHN; 28.8 µM (inactive) with TK-10; 21.3 µM (inactive) with OVCAR-4; 18.1 µM (inactive) in the test with NCI-H23. Moreover, the GI50 is 1.71 µM (inactive) in the test on CAKI-1; 38.9 µM (inactive) with MDA-MB-435; 19.3 µM (inactive) in the test on HCC 2998; 14 µM (inactive) with NCI/ADR-RES; 23.6 µM (inactive) in the test on Malme-3M; 7.18 µM (inactive) in the test on EKVX. Further, the GI50 with MDA-N was 30.8 µM (inactive); in the test on SF-539, 39.9 µM (inactive); in the test on UACC-257, 19.4 µM (inactive); in the test with MDA-MB-231, 28.9 µM (inactive); in the test on OVCAR-3, 12.4 µM (inactive); with M14, 55.1 µM (inactive). Also, the GI50 in the test on SF-268 was 14.8 µM (inactive); with HCT-15, 19.5 µM.

On to `COc1ccccc1Cc1ccc(C2C=CC3(CC(=O)C=C3C)C(=O)C2)o1` (stereo not given), for which the GI50 was 17.7 µM (inactive) in the test on HL-60; 18.4 µM (inactive) with SR; 33 µM (inactive) with ACHN; 39.5 µM (inactive) in the test with TK-10; 31 µM (inactive) in the test on OVCAR-4; 21 µM (inactive) with NCI-H23. For the same compound, the GI50 in the test on CAKI-1 was 29.6 µM (inactive); in the test on MDA-MB-435, 19.4 µM (inactive); in the test on HCC 2998, 28.1 µM (inactive); in the test with NCI/ADR-RES, 24.7 µM (inactive); in the test on Malme-3M, 17.9 µM (inactive); in the test on EKVX, 34.8 µM (inactive). The GI50 with MDA-N was 18.5 µM (inactive); in the test on SF-539 it was 18.6 µM (inactive); in the test with UACC-257, 22.4 µM (inactive); with MDA-MB-231 it was 21 µM (inactive); with OVCAR-3, 10.2 µM (inactive); in the test with M14 it was 32.1 µM (inactive). Moreover, the GI50 with SF-268 is 20.3 µM (inactive); with HCT-15, 25.6 µM.

`CCOC(=O)/C=C(\C(=O)OCC)n1ccc(N)nc1=O`: the GI50 was 26.6 µM (inactive) with HL-60; 87.7 µM (inactive) in the test on SR; > 100 µM (inactive) in the test on ACHN; > 100 µM (inactive) in the test with TK-10; 72.9 µM (inactive) with OVCAR-4; > 100 µM (inactive) in the test on NCI-H23. Moreover, the GI50 is 37.7 µM (inactive) in the test with CAKI-1; 94.6 µM (inactive) in the test with MDA-MB-435; > 100 µM (inactive) in the test on HCC 2998; > 100 µM (inactive) in the test with NCI/ADR-RES; 45.7 µM (inactive) with Malme-3M; 62.8 µM (inactive) in the test with EKVX. Besides, the GI50 in the test on MDA-N, with SF-539, in the test with UACC-257, in the test with MDA-MB-231, in the test with OVCAR-3 and with M14 was > 100 µM (inactive) each time. The GI50 in the test on SF-268 was > 99.8 µM (inactive); with HCT-15 it was > 100 µM.

Regarding `C#C[C@]1(O)CC[C@H]2[C@@H]3CCC4=C/C(=N/NC(=O)c5cccc6c(=O)c7ccccc7[nH]c56)CCC4[C@H]3CC[C@@]21C` (stereo not given in full), the GI50 in the test with HL-60 is 26.4 µM (inactive); in the test on SR, 28.4 µM (inactive); in the test with ACHN, 65.6 µM (inactive); in the test with TK-10, 57.5 µM (inactive); in the test with OVCAR-4 it was 45.8 µM (inactive); in the test with NCI-H23, 27.1 µM (inactive). The GI50 in the test with CAKI-1 was > 100 µM (inactive); with MDA-MB-435, 38.7 µM (inactive); in the test on HCC 2998, 47.9 µM (inactive); with NCI/ADR-RES it was 55.5 µM (inactive); in the test on Malme-3M it was 18 µM (inactive); in the test on EKVX, 77.8 µM (inactive). Moreover, the GI50 in the test on MDA-N is 50.4 µM (inactive); in the test with SF-539 it was 34.7 µM (inactive); with UACC-257 it was 35.5 µM (inactive); with MDA-MB-231 it was > 100 µM (inactive); in the test on OVCAR-3, 32.3 µM (inactive); in the test with M14, 59.8 µM (inactive). For the same compound, the GI50 in the test with SF-268 is > 100 µM (inactive); in the test on HCT-15, 73.8 µM.
